Test results: patent publication US8252740B2, “Thermally-targeted delivery of medicaments including doxorubicin” (The University of Mississippi Medical Center, priority 2006, dated 2012)
Entries after “also recorded” stand apart in the source; their conditions may differ. Like-named read-outs stand apart in the source and are kept apart here. Marks after values point to notes of the source that are not given here.

Legend:
Format in all cases: cell-based, human
[1] = system: MES-SA uterine sarcoma cells; settings: for IC50: cells counted after 72 h, ± SEM
Procedure: MES-SA cells were treated for 1 h at 37 or 42° C. with 5 μM Tat-ELP-GFLG-DOX (SEQ ID NO: 3); ELP-GFLG-DOX (SEQ ID NO: 3), which lacks the Tat cell penetrating peptide; or Tat-ELP-GFLG (SEQ ID NO: 3), which is not labeled with DOX. After the 1 h treatment, cells were rinsed and fresh media was replaced for 72 h. Cells remaining after 72 h were collected by trypsinization and counted using a Coulter counter. […] Similarly, the control polypeptide which lacks the Tat sequence was not cytotoxic, likely because it cannot efficiently enter the cells.
1.8 Cytotoxicity Assay. Cells were plated and treated for 1 h at 37° C. and 42° C. as described above with Tat-ELP1-GFLG-Dox (SEQ ID NO: 3), Tat-ELP2-GFLG-Dox (SEQ ID NO: 3), or control polypeptides lacking the Tat sequence or unlabeled with Dox. Cells were rinsed and harvested 72 h after treatment by trypsinization, collected by centrifugation, and resuspended in isotonic buffer. Cell number was determined using a Coulter counter and expressed as a percentage of untreated cells.
1.10. Data Fitting and Statistical Analysis. The concentration dependence of the Tt was fit with a logarithmic equation using Microsoft Excel. Dose-response curves were fit using exponential or sigmoid equations as applicable using Microcal Origin in order to determine the 50% inhibitory concentration (IC50). […] The significance of the thermal targeting index was assessed by comparing the normothermia group with the hyperthermia group using a paired Student's t-test in Microsoft Excel. p values of less than 0.05 were considered statistically significant. Polypeptide uptake and caspase activation were analyzed for statistical differences using one-way ANOVA analyses with post-hoc Scheffe's tests for pair-wise comparisons of treatment groups. The statistical significance level was p<0.05.
3.5. Cytotoxicity of ELP-delivered Dox. The growth-inhibitory activity of Tat-ELP-GFLG-Dox (SEQ ID NO: 3) was evaluated in the MES-SA uterine sarcoma cell line. MES-SA cells were treated for 1 h at 37° C. or 42° C. with various concentrations of Tat-ELP-GFLG-Dox (SEQ ID NO: 3); ELP-GFLG-Dox (SEQ ID NO: 3), which lacks the Tat cell penetrating peptide, the Tat-ELP-GFLG (SEQ ID NO: 3) polypeptide without Dox; or free Dox. After the 1 h treatment, the cells were rinsed and fresh media was replaced for 72 h. Cells remaining after 72 h were rinsed, collected by trypsinization, and counted using a Coulter counter. […] The toxicity of the unlabeled Tat-ELP-GFLG (SEQ ID NO: 3) protein was negligible when treated below the Tt.

MES-SA cells [2] = assay: Caspase activation, FLICA polycaspase assay with flow cytometry; settings: 10 μM, 1 h
Procedure: MES-SA cells were treated for 1 h at 37 or 42° C. with Tat-ELP-GFLG-DOX (SEQ ID NO: 3), the control construct lacking the Tat sequence, with free DOX. Cells were harvested after the 1 h exposure, and caspase activity was detected using a fluorescent caspase inhibitor (Immunochemistry Technologies, Bloomington, Minn.) and flow cytometry.
Caspase activation was measured using a carboxyfluorescein FLICA polycaspase assay (Immunochemistry Technologies, Bloomington, Minn.). Cells were treated as described above with the indicated protein, collected by trypsinization, and stained for 2 h at 37° C. with the carboxyfluorescein FLICA reagent as described by the manufacturer. Cells were rinsed twice and analyzed for caspase activation by flow cytometry using a Cytomics FC 500 flow cytometer (n=5,000 cells). Forward versus side scatter gating was used to eliminate cell debris from the analysis, and a histogram of fluorescein fluorescence (channel FL1) was bimodal with peaks for caspase positive and caspase negative cells. The percentage of caspase positive cells was determined from the histograms and expressed as an average of 3 experiments.
MES-SA cells were treated as described above, cells were harvested after the 1 h exposure, and caspase activity was detected using a fluorescent caspase inhibitor and flow cytometric analysis. […] Cell numbers under each peak were quantified and averaged to determine the percentage of the cell population in which caspases were activated under each treatment condition. […] In fact, the percent of caspase positive cells was enhanced almost 4 fold when cells were treated with Tat-ELP1-GFLG-Dox (SEQ ID NO: 3) at 42° C. versus 37° C. (p<0.05).

MES-SA cells [3] = assay: DIC microscopy of apoptotic cell morphology; settings: 10 μM, 1 h, temperature not distinguished
Procedure: 1.9. Apoptosis Assays. For differential interference contrast (DIC) microscopy, MES-SA cells were plated onto 22 mm^2 coverslips at 50% confluence. Cells were treated as described above with the indicated protein, rinsed with PBS, and mounted onto glass slides. The unfixed cells were imaged immediately using a Zeiss Axiovert 200 DIC microscope with a 40× oil immersion objective and a Coolsnap HQ camera.
2.6. Induction of Apoptosis. […] This effect was documented by treating MES-SA cells adhered to glass cover slips with each construct and imaging them by DIC microscopy. Cells were treated for 1 h as described above, then immediately mounted on slides and imaged without fixation. […] Untreated cells were spread onto the glass, and morphological features such as nuclei and endocytic vesicles were readily visible. This morphology was not altered by simply exposing the cells to hyperthermia. […] However, such effects were minor and limited to a fraction of the cells. […] All cells examined were rounded with no discernable nucleus and fragmented chromosomes.

MES-SA cells [4] = assay: Confocal fluorescence microscopy of intracellular localization; settings: 10 μM, after 1 h exposure; listed as free drug
Procedure: 1.7. Laser Scanning Confocal Fluorescence Microscopy. MES-SA cells were plated on 22 mm^2 cover slips at approximately 50% confluence and treated as described above with Tat-ELP-GFLG-Dox (SEQ ID NO: 3). Cells were rinsed with PBS at the indicated times, fixed with paraformaldehyde (PFA, 2% v/v) and visualized using a TCS SP2 laser scanning confocal microscope with a 100× oil immersion objective (Leica, Wetzlar, Germany). PMT voltages were lowered for imaging of cells treated at 42° C. during image acquisition to maximize image resolution and intensity.
3.4. Cellular Distribution. To confirm that Tat-ELP-GFLG-Dox (SEQ ID NO: 3) was internalized and not merely attached to the cell exterior, the cellular distribution of the ELP-delivered drug was examined by confocal fluorescence microscopy. MES-SA cells were treated for 1 h at 37° C. and 42° C. with 10 μM Tat-ELP1-GFLG-Dox (SEQ ID NO: 3). The cells were rinsed and analyzed immediately after treatment and 24 h later using the intrinsic Dox fluorescence. […] Untreated cells had no signal under the imaging settings used, ruling out any contribution to the images from autofluorescence (FIG. 7B, right panel).

MES-SA/Dx5 cells [5] = assay: Proliferation of doxorubicin-resistant cells, continuous 72 h exposure
Procedure: To test the ability of the ELP doxorubicin carrier to overcome this drug resistance, a uterine cancer cell line (MES-SA) and its doxorubicin resistant subline MES-SA/Dx5 were treated with either free doxorubicin or ELP-delivered doxorubicin.
A major problem with classical chemotherapy is the development of drug resistance. The most common mechanism of resistance is expression of a drug efflux pump (MDR1) by the cancer cells in response to drug treatment. This pump can remove drugs from the cells, and, though induced by one drug, it can act on a wide variety of others, resulting in a phenomenon called multi-drug resistance. […] The present inventors used this cell line to determine whether ELP delivered DOX can overcome MDR1-mediated resistance to doxorubicin. MES-SA/Dx5 cells were incubated with Tat-ELP-GFLG-DOX (SEQ ID NO: 3) continuously for 72 h.

MES-SA/Dx5 cells [6] = assay: Drug efflux by flow cytometry; settings: loaded 5 h with 10 μM
Procedure: For further evidence that Tat-ELP-GFLG-DOX (SEQ ID NO: 3) can bypass the drug efflux pump, flow cytometry was used to analyze drug efflux from cells treated with free DOX or with Tat-ELP-GFLG-DOX (SEQ ID NO: 3). Cells were loaded for 5 h with either 10 μM DOX or Tat-ELP-GFLG-DOX (SEQ ID NO: 3), then the drug was removed and fresh media was replaced. Cells were collected and analyzed for DOX content using flow cytometry. […] The cells with low DOX fluorescence have pumped the drug out. As time passes after removal of the drug, the DOX positive peak gets lower in intensity and becomes a smaller percentage of the population. This illustrates the removal of DOX from theses cells with time after washing the drug out of the media. […] This means that all cells have the same amount of drug in them. This single peak is still evident at all time points after removal of the drug. This means that these cells are unable to pump the ELP delivered DOX out.

Q: For `COc1cccc2c1C(=O)c1c(O)c3c(c(O)c1C2=O)C[C@@](O)(C(=O)CO)C[C@@H]3O[C@H]1C[C@H](N)[C@H](O)[C@H](C)O1` [Dox, doxorubicin], which Cytotoxicity in words [1] is on record?
A: The Cytotoxicity in words was “more cytotoxic than the polymer-delivered drug”.

Q: And the “IC50 relative to Tat-ELP-GFLG delivered Dox (times lower)” value [1]?
A: The value was “about 150 times”.

Q: And the IC50 ([1]; 1 h treatment at 37° C., read-out: IC50 (37° C.))?
A: Its IC50 is 130 ± 10 nM.

Q: And the IC50 ([1]; 1 h treatment at 42° C., read-out: IC50 (42° C.))?
A: Its IC50 is 58 ± 20 nM.

Q: What about the “Thermal Targeting Index (IC50 37°/IC50 42°)” value ([1]; IC50 at 37° C. divided by IC50 at 42° C.) of the same molecule?
A: The value was 2.3 †.

Q: And the “Enhancement of percent caspase positive cells at 42° C. versus 37° C.” value (MES-SA cells [2])?
A: Its value is “not affected by hyperthermia”.

Q: And the “Caspase activation / apoptosis induction” value (MES-SA cells [2]; temperature not distinguished)?
A: The value was “induced apoptosis”.

Q: What about the “Cell morphology (hallmarks of apoptosis)” value (MES-SA cells [3]) of the same molecule?
A: Its value is “noticeable rounding and membrane blebbing”.

Q: What about the “Intracellular localization of Dox” value (MES-SA cells [4]) of the same molecule?
A: The value was “exclusively in the cell nucleus; also recorded: localizes entirely in the nucleus”.

Q: And the “Resistance of MES-SA/Dx5 relative to MES-SA cells” value (MES-SA/Dx5 cells [5])?
A: Its value is 100 times.

Q: What about the “Resistance of MES-SA/Dx5 relative to MES-SA cells” value (MES-SA/Dx5 cells [5]; continuous 72 h exposure) of the same molecule?
A: Its value is “about 100 fold”.

Q: And the “Drug efflux: Dox fluorescence histogram after removal of the drug” value (MES-SA/Dx5 cells [6])?
A: The value was “two populations”.
